What was measured:
P110 δ/Pi3K δ = P110 δ/Pi3K δ (Homo sapiens, UniProt O00329); assay: Fluorescent (HTRF) determination of PI3K enzyme activity, δ isoform; type: biochemical
From the text: Assay 1: Fluorescent determination of PI3Kinase Kinase enzyme activity
Phosphoinositide 3 kinases (PI3K) belong to a class of lipid kinases that play a critical role in the regulation of several key cellular processes. The PI3K are capable of phosphorylating the 3-hydroxy position of phosphoinositols thereby generating second messengers involved in downstream signalling events. The homogenous time resolved fluorescence (HTRF) assay allows detection of 3,4,5-triphosphate (PIP3) formed as a result of phosphorylation of phosphotidylinositol 4,5-biphosphate (PIP2) by PI3K isoforms such as α, β, γ or δ.
PI3K isoform activity for α, β, γ or δ was determined using a PI3K human HTRF™ Assay Kit (Millipore, Billerica, Mass.) with modifications. All incubations were carried out at room temperature. […] After the initial incubation, 5 μl/well of 400 μM ATP was added and incubated for an additional 30 minutes. Reaction was terminated by adding 5 μl/well stop solution (Millipore, Billerica, Mass.). Five microliters of detection mix (Millipore, Billerica, Mass.) were then added to each well and was incubated for 6-18 h in the dark. […] Data were analyzed using Graphpad Prism (Graphpad software; San Diego Calif.) for IC50 determination. Percent inhibition was calculated based on the values for the blank and enzyme controls.

P110 δ/Pi3K δ, sequence (O00329 whole entry, canonical isoform): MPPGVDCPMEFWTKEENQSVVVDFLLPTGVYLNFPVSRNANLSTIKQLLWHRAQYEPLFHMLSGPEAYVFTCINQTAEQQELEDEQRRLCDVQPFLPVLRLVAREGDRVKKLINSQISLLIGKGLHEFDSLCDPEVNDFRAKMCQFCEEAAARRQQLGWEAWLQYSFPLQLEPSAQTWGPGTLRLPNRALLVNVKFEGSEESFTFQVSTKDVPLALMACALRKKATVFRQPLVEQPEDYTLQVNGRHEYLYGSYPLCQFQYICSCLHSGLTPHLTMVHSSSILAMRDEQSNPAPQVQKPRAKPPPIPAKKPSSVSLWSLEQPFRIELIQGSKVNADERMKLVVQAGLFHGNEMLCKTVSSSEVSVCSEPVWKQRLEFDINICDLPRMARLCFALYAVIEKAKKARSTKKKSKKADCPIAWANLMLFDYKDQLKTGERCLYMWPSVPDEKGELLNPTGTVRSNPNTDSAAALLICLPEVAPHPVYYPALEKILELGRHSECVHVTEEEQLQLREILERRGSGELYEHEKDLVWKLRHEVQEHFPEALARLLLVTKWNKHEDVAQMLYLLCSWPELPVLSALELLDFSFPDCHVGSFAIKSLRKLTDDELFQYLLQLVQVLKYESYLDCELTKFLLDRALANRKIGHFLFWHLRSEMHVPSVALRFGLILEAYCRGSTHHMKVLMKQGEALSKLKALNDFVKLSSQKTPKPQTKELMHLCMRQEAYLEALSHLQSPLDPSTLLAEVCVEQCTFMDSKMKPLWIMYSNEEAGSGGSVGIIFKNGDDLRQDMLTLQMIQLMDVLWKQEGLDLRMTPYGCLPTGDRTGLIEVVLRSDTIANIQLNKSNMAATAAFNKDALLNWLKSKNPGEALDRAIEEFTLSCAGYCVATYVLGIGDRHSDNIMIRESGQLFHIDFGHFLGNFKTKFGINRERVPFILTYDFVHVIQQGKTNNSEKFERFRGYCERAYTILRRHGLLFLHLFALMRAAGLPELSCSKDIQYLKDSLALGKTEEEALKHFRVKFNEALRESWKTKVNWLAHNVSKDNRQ
P110 δ/Pi3K δ, sequence (P27986 whole entry partner, canonical isoform): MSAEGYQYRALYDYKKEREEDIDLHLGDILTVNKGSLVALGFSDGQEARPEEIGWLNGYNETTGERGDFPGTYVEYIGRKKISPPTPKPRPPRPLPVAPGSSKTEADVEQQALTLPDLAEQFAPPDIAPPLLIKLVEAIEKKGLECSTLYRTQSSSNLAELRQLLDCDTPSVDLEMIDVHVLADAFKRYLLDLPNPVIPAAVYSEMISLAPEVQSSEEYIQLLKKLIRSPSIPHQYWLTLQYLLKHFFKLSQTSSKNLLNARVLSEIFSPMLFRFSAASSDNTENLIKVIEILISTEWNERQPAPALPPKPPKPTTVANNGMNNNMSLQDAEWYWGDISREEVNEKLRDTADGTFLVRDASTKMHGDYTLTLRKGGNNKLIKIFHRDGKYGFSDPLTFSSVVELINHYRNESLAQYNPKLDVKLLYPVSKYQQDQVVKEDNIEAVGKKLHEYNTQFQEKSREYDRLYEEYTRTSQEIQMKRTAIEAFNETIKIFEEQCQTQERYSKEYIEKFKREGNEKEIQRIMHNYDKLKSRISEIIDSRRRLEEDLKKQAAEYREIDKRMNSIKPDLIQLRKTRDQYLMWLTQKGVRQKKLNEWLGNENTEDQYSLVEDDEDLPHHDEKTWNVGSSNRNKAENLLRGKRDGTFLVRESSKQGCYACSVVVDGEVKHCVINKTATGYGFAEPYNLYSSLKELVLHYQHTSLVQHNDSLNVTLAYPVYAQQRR

inhibition at 1 µM (P110 δ/Pi3K δ) [%] | melting point [°C] | IC50 (P110 δ/Pi3K δ; read-out: P110 δ/Pi3K δ IC 50 nM) [nM] | SMILES
< 50 | 102 to 107 | – | CCC(c1oc2ccccc2c(=O)c1-c1cccc(F)c1)n1cnc2c(N)ncnc21 (centres unmarked) [Example 36, 2-(1-(6-amino-9H-purin-9-yl)propyl)-3-(3-fluorophenyl)-4H-chromen-4-one]
< 50 | 223 to 227 | – | CCC(c1oc2ccccc2c(=O)c1-c1ccc(F)cc1)n1cnc2c(N)ncnc21 (centres unmarked) [Example 37, 2-(1-(6-Amino-9H-purin-9-yl)propyl)-3-(4-fluorophenyl)-4H-chromen-4-one]
< 50 | 266 to 272 | – | CCC(c1oc2ccc(F)cc2c(=O)c1-c1ccccc1)n1cnc2c(N)ncnc21 (centres unmarked) [Example 38, 2-(1-(6-amino-9H-purin-9-yl)propyl)-6-fluoro-3-phenyl-4H-chromen-4-one]
< 50 | 210 to 212 | – | CC(c1oc2ccccc2c(=O)c1-c1ccc(F)cc1)n1cnc2c(N)ncnc21 (centres unmarked) [Example 39, 2-(1-(6-Amino-9H-purin-9-yl)ethyl)-3-(4-fluorophenyl)-4H-chromen-4-one]
50 to 100 | 264 to 269 | – | CC(c1oc2ccc(F)cc2c(=O)c1-c1ccccc1)n1cnc2c(N)ncnc21 (centres unmarked) [Example 40, 2-(1-(6-Amino-9H-purin-9-yl)ethyl)-6-fluoro-3-phenyl-4H-chromen-4-one]
50 to 100 | 176 to 178 | – | COc1cccc(-c2nn(C(C)c3oc4ccccc4c(=O)c3-c3ccccc3)c3ncnc(N)c23)c1 (centres unmarked) [Example 41, 2-(1-(4-Amino-3-(3-methoxyphenyl)-1H-pyrazolo[3,4-d]pyrimidin-1-yl)ethyl)-3-phenyl-4H-chromen-4-one]
< 50 | 155 to 158 | – | O=c1c(-c2ccccc2)c(CNc2ncnc3[nH]cnc23)oc2ccccc12 [Example 43, 2-((9H-purin-6-ylamino)methyl)-3-phenyl-4H-chromen-4-one]

Second part, the compound before the results:

SMILES | inhibition at 1 µM (P110 δ/Pi3K δ) [%] | melting point [°C] | IC50 (P110 δ/Pi3K δ; read-out: P110 δ/Pi3K δ IC 50 nM) [nM]
CC(c1oc2ccc(Br)cc2c(=O)c1-c1ccccc1F)n1cnc2c(N)ncnc21 (centres unmarked) [Example 28, 2-(1-(6-Amino-9H-purin-9-yl)ethyl)-6-bromo-3-(2-fluorophenyl)-4H-chromen-4-one] | < 50 | 256 to 258 | –
Nc1ncnc2c1ncn2Cc1oc2ccc(Br)cc2c(=O)c1-c1ccccc1F [Example 29, 2-((6-Amino-9H-purin-9-yl)methyl)-6-bromo-3-(2-fluorophenyl)-4H-chromen-4-one] | < 50 | 231 to 233 | –
CC(c1oc2ccccc2c(=O)c1-c1ccccc1)n1ncc2c(N)ncnc21 (centres unmarked) [Example 30, 2-(1-(4-Amino-1H-pyrazolo[3,4-d]pyrimidin-1-yl)ethyl)-3-phenyl-4H-chromen-4-one] | < 50 | 226 to 227 | –
CCC(c1oc2ccccc2c(=O)c1-c1ccccc1)n1cnc2c(N)ncnc21 (centres unmarked) [Example 31, 2-(1-(6-Amino-9H-purin-9-yl)propyl)-3-phenyl-4H-chromen-4-one] | 50 to 100 | 223 to 225 | 250 to 500
Nc1ncnc2c1ncn2Cc1oc2ccccc2c(=O)c1-c1ccccc1F [Example 33, 2-((6-Amino-9H-purin-9-yl)methyl)-3-(2-fluorophenyl)-4H-chromen-4-one] | < 50 | 202 to 205 | –
CC(c1oc2ccccc2c(=O)c1-c1ccccc1F)n1cnc2c(N)ncnc21 (centres unmarked) [Example 34, 2-(1-(6-Amino-9H-purin-9-yl)ethyl)-3-(2-fluorophenyl)-4H-chromen-4-one] | 50 to 100 | 247 to 250 | –
CCC(c1oc2ccccc2c(=O)c1-c1ccccc1F)n1cnc2c(N)ncnc21 (centres unmarked) [Example 35, 2-(1-(6-Amino-9H-purin-9-yl)propyl)-3-(2-fluorophenyl)-4H-chromen-4-one] | < 50 | 160 to 163 | –

Reference: US9421209B2, “Kinase modulators” (Rhizen Pharmaceuticals SA, priority 2009, dated 2016)
